Laboratory results as given in ChEMBL document CHEMBL4406811, “Optimization and Mechanistic Characterization of Pyridopyrimidine Inhibitors of Bacterial Biotin Carboxylase” (J Med Chem, 2019).
Values after ≈ are worked out from the molar mass of the structure shown. Active and inactive are the calls of the source. The calls are words filed in the database; no cut-off is given here.

Experiments:
[1] = target: Biotin carboxylase (Pseudomonas aeruginosa (strain ATCC 15692 / DSM 22644 / CIP 104116 / JCM14847 / LMG 12228 / 1C / PRS 101 / PAO1), UniProt P37798); assay: Inhibition of recombinant N-terminal His-tagged Pseudomonas aeruginosa PAO1 biotin carboxylase expressed in Escherichia coli Rosetta(DE3) pLysS cells using biotin as substrate by spectroscopic analysis
[2] = test system: Escherichia coli; assay: Antibacterial activity against Escherichia coli DM4100 harboring deltatolC mutant measured after 18 to 20 hrs in presence of permeabilizing agent PMBN by broth microdilution method; type: functional
[3] = test system: Escherichia coli; assay: Antibacterial activity against Escherichia coli DM4100 harboring deltatolC mutant measured after 18 to 20 hrs by broth microdilution method; type: functional
[4] = test system: Pseudomonas aeruginosa; assay: Antibacterial activity against Pseudomonas aeruginosa PAO1 PAM1262 harboring MexAB-OprM/MexCD-OprJ/MexEF-OprN deletion mutant measured after 18 to 20 hrs by broth microdilution method; type: functional
[5] = test system: Escherichia coli; assay: Induction of cytological changes in Escherichia coli ATCC 25922 assessed as formation of short chains of three to eight cells at 150 ug/ml measured after 2 hrs by FM 4-64/DAPI staining based microscopic analysis; type: functional, organism-based

Sequence of Biotin carboxylase (P37798 whole entry): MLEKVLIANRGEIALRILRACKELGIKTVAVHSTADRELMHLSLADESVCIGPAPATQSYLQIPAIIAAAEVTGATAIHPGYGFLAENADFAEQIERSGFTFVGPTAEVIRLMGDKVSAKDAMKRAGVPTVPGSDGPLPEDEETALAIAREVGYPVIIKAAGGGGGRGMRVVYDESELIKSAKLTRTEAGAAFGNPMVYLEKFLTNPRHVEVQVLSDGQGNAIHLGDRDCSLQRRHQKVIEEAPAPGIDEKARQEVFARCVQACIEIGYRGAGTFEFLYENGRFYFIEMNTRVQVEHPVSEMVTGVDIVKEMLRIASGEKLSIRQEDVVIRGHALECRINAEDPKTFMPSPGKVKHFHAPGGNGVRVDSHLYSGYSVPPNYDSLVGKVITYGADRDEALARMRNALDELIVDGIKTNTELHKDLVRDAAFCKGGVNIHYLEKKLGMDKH

SMILES	IC50 [1]	MIC [2]	MIC [3]	MIC [4]	Activity [5]
NCC1(F)CCN(c2nc3nc(N)ncc3cc2-c2c(Cl)cccc2Cl)C1 (centres undefined)	440 nM	1 µg/mL			
NC(=O)C1CCN(c2nc3nc(N)ncc3cc2-c2c(Cl)cccc2Cl)C1 (centres undefined)	170 nM	0.12 µg/mL	0.5 µg/mL (≈ 1.24 µM)		
Nc1ncc2cc(-c3c(Cl)cccc3Cl)c(N3CCC(CO)C3)nc2n1 (centres undefined)	140 nM	0.12 µg/mL	0.25 µg/mL (≈ 0.641 µM)		
NCC1CCN(c2nc3nc(N)ncc3cc2-c2c(Cl)cccc2Cl)CC1	320 nM	0.5 µg/mL	1 µg/mL (≈ 2.48 µM)	64 µg/mL (≈ 159 µM)	
Nc1ncc2cc(-c3c(Cl)cccc3-c3ccncc3)c(N3C[C@@H]4[C@@H](N)[C@@H]4C3)nc2n1	≤ 15 nM	0.015 µg/mL	0.03 µg/mL (≈ 0.0698 µM)	2 µg/mL (≈ 4.65 µM)	
COc1ncc(-c2cccc(Cl)c2-c2cc3cnc(N)nc3nc2N2C[C@@H]3[C@@H](N)[C@@H]3C2)cc1F	≤ 15 nM	0.008 µg/mL	0.015 µg/mL (≈ 0.0314 µM)	2 µg/mL (≈ 4.18 µM)	
Nc1ncc2cc(-c3c(Cl)cccc3Cl)c(N3C[C@@H]4[C@@H](N)[C@@H]4C3)nc2n1	33 nM	0.06 µg/mL	0.12 µg/mL (≈ 0.31 µM)		
Nc1ncc2cc(-c3c(Cl)cccc3Cl)c(N3CCC(N)(CO)C3)nc2n1 (centres undefined)	190 nM	0.25 µg/mL	1 µg/mL (≈ 2.47 µM)		
Cc1ncc(-c2cccc(Cl)c2-c2cc3cnc(N)nc3nc2N2C[C@@H]3[C@@H](N)[C@@H]3C2)s1	≤ 15 nM	0.004 µg/mL	0.008 µg/mL (≈ 0.0178 µM)	1 µg/mL (≈ 2.22 µM)	
CC(C)COc1cccc(Cl)c1-c1cc2cnc(N)nc2nc1N	93 nM	≤ 0.06 µg/mL	0.25 µg/mL (≈ 0.727 µM)		
Nc1ncc2cc(-c3c(Cl)cccc3-c3cccnc3)c(N)nc2n1	36 nM	0.06 µg/mL	0.12 µg/mL (≈ 0.344 µM)	4 µg/mL (≈ 11.5 µM)	
COc1ccc(-c2cccc(Cl)c2-c2cc3cnc(N)nc3nc2N)cn1	32 nM	0.03 µg/mL	0.06 µg/mL (≈ 0.158 µM)		
Nc1ncc2cc(-c3ccccc3-c3cccnc3)c(N)nc2n1	130 nM	0.5 µg/mL	2 µg/mL (≈ 6.36 µM)	16 µg/mL (≈ 50.9 µM)	
Nc1ncc2cc(-c3c(Cl)cccc3Cl)c(N)nc2n1	320 nM	0.25 µg/mL	0.5 µg/mL (≈ 1.63 µM)	16 µg/mL (≈ 52.3 µM)	
NCC1(O)CCN(c2nc3nc(N)ncc3cc2-c2c(Cl)cccc2Cl)C1 (centres undefined)	83 nM	0.25 µg/mL	1 µg/mL (≈ 2.47 µM)	> 64 µg/mL	
Nc1ncc2cc(-c3ccccc3-c3ccccc3)c(N)nc2n1	79 nM	0.25 µg/mL	0.5 µg/mL (≈ 1.6 µM)		
NCC1CCN(c2nc3nc(N)ncc3cc2-c2c(Cl)cccc2Cl)C1 (centres undefined)	64 nM	0.12 µg/mL	0.5 µg/mL (≈ 1.28 µM)		Active
